Experimental data as given in patent publication US9556223B2, “Antimicrobial compounds” (priority 2008, dated 2017).
Values after ≈ are worked out from the molar mass of the structure shown.

Experiments:
[1] = tested on: Staphylococcus haemolyticus; assay: Susceptibility testing under planktonic growth condition (MIC); details: E-test (rifampicin: broth microdilution)
[2] = tested on: Staphylococcus epidermidis; assay: as above; details: E-test (rifampicin: broth microdilution)
[3] = tested on: Staphylococcus aureus; assay: as above; details: E-test (rifampicin: broth microdilution)
[4] = tested on: C. albicans; assay type: cell-based
[5] = tested on: Staphylococcus aureus, strain ATCC 25923; assay type: cell-based
Description: (§1) MIC determinations on Staphylococcus aureus, strain ATCC 25923, Methicillin resistant Staphylococcus aureus (MRSA) strain ATCC 33591 and Methicillin resistant Staphylococcus epidermidis (MRSE) strain ATCC 27626 were performed by Toslab AS using standard methods. Amsterdam, D. (1996) Susceptibility testing of antimicrobials in liquid media, in Antibiotics in Laboratory Medicine. 4th ed (Lorian, V., Ed.) pp 75-78, Williams and Wilkins Co; Baltimore.

[6] = tested on: S. pyogenes; assay type: cell-based
[7] = tested on: E. coli; assay type: cell-based
[8] = tested on: P. aeruginosa; assay type: cell-based
[9] = tested on: Methicillin resistant Staphylococcus aureus (MRSA) strain ATCC 33591; assay type: cell-based
Description: as §1

[10] = tested on: S. haemolyticus TUH 51-07 biofilm; assay: Biofilm imaging, LIVE/DEAD staining, confocal laser scanning microscopy; assay type: cell-based
Description: One ml aliquots of MHIIB-diluted overnight culture was used to grow S. haemolyticus TUH 51-07 biofilm on plastic coverslides (Thermanox, cellculture treated on one side, NUNC) in 24-well dishes (Falcon 3047, Becton Dickinson, N.J., USA) for 24 h. The coverslides were then washed carefully with PBS, moved to a new plate and treated for 24 h with tetracycline 50 mg/L and 500 mg/L, vancomycin 50 mg/L and 500 mg/L, or Compound […] and 500 mg/L. The coverslides were washed again with […] and stained with a LIVE/DEAD kit (Invitrogen Molecular Probes, Eugene, Oreg., USA) following the manufacturer's instructions. This stain contains SYTO 9 (green fluorescent) and propidium iodide (PI; red fluorescent), both binding to DNA. When used alone, the SYTO 9 generally stains all bacteria in a population; both those with intact and those with damaged membranes. In contrast, PI penetrates only bacteria with damaged membranes, causing a reduction in the SYTO 9 stain green fluorescence when both dyes are present. We examined treated and untreated biofilms with a Leica TCS SP5 (Leica Microsystems Cms Gmbh, Mannheim, Germany) confocal laser scanning microscope (CLSM). Images were obtained using a 63×1.2 NA HCX PL APO water immersion lens. For detection of SYTO9 (green channel), we used the 488 nm line of the argon laser and a detection bandwidth of 495-515 nm. […]

[11] = strain SH TUH 51-07, blood culture
[12] = strain TUH 51-03, blood culture
[13] = strain SE RP62A ATCC 35984, blood culture
[14] = strain SE TUH 08-16, blood culture

Compound	MIC antibiotics [1, 11] [µg/mL]	MIC antibiotics [1, 12] [µg/mL]	MIC antibiotics [2, 13] [µg/mL]	MIC antibiotics [2, 14] [µg/mL]	MIC antibiotics ([3]; strain SA PIA 9, joint fluid) [µg/mL]	MIC antibiotics ([3]; strain SA PIA90, joint fluid) [µg/mL]	MIC C. albicans [4] [µg/mL]	MIC S. aureus [5] [µg/mL]	MIC S. pyogenes [6] [µg/mL]	MIC E. coli [7] [µg/mL]	MIC P. aeruginosa [8] [µg/mL]	MIC MRSA [9] [µg/mL]	LIVE/DEAD staining of biofilm cells (green live, red dead) ([10]; 24 h treatment at 500 mg/L)	LIVE/DEAD staining of biofilm cells (green live, red dead) ([10]; 24 h treatment at 50 mg/L)
gentamicin	64	64	8	256	1	0.5								
CC(=O)NC[C@H]1CN(c2ccc(N3CCOCC3)c(F)c2)C(=O)O1 [LZD, linezolid]	0.5 (≈ 1.48 µM)	0.5 (≈ 1.48 µM)	1 (≈ 2.96 µM)	2 (≈ 5.93 µM)	2 (≈ 5.93 µM)	1 (≈ 2.96 µM)								
CCCCCCCCCCCCCCCCNC(=O)[C@H](CCCNC(=N)N)NC(=O)[C@H](Cc1c(C(C)(C)C)[nH]c2c(C(C)(C)C)cc(C(C)(C)C)cc12)NC(=O)[C@@H](N)CCCNC(=N)N [Compound 5]							>100	5 (≈ 5.5 µM)	6 (≈ 6.61 µM)	>100	>100			
CC(C)(C)c1cc(C(C)(C)C)c2[nH]c(C(C)(C)C)c(C[C@H](NC(=O)[C@@H](N)CCCNC(=N)N)C(=O)N[C@@H](CCCNC(=N)N)C(=O)NC3CCCC3)c2c1 [Compound 8]												<15		
CN(C)[C@@H]1C(=O)C(C(N)=O)=C(O)[C@@]2(O)C(=O)C3=C(O)c4c(O)cccc4[C@@](C)(O)[C@H]3C[C@@H]12 [TET, tetracycline]	0.5 (≈ 1.13 µM)	1 (≈ 2.25 µM)	0.5 (≈ 1.13 µM)	2 (≈ 4.5 µM)	0.5 (≈ 1.13 µM)	0.5 (≈ 1.13 µM)							a significant part of the cells are still green indicating live bacteria with intact cell membrane	
CN[C@H](CC(C)C)C(=O)N[C@H]1C(=O)N[C@@H](CC(N)=O)C(=O)N[C@H]2C(=O)N[C@H]3C(=O)N[C@H](C(=O)N[C@H](C(=O)O)c4cc(O)cc(O)c4-c4cc3ccc4O)[C@H](O)c3ccc(c(Cl)c3)Oc3cc2cc(c3O[C@@H]2O[C@H](CO)[C@@H](O)[C@H](O)[C@H]2O[C@H]2C[C@](C)(N)[C@H](O)[C@H](C)O2)Oc2ccc(cc2Cl)[C@H]1O [VAN, vancomycin]	2 (≈ 1.38 µM)	4 (≈ 2.76 µM)	4 (≈ 2.76 µM)	2 (≈ 1.38 µM)	2 (≈ 1.38 µM)	2 (≈ 1.38 µM)								predominantly green cells (live organisms)
CO[C@H]1/C=C/O[C@@]2(C)Oc3c(C)c(O)c4c(O)c(c(/C=N/N5CCN(C)CC5)c(O)c4c3C2=O)NC(=O)/C(C)=C\C=C\[C@H](C)[C@H](O)[C@@H](C)[C@@H](O)[C@@H](C)[C@H](OC(C)=O)[C@@H]1C [RIF, rifampicin]	0.016 (≈ 0.0194 µM)	<0.016	<0.016	0.016 (≈ 0.0194 µM)	<0.016	0.016 (≈ 0.0194 µM)								
Cc1onc(-c2ccccc2)c1C(=O)N[C@@H]1C(=O)N2[C@@H]1SC(C)(C)[C@@H]2C(=O)O [OXA, oxacillin]	>256	>256	8 (≈ 19.9 µM)	16 (≈ 39.9 µM)	1 (≈ 2.49 µM)	1 (≈ 2.49 µM)								
